# Measurements reported in US20050119288A1, “Dosing schedule for a novel anticancer agent” (Pfizer Inc, priority 2003, published 2005).
# Key:
# [1] = molecular target: erbB2 receptor autophosphorylation (Homo sapiens, UniProt P04626); assay: p-erbB2 reduction in BT-474 tumors by ELISA; type: in vivo; settings: 0.5 hr post-dosing on day 22; for inhibition in vivo at 30 mg/kg / inhibition in vivo at 50 mg/kg: BT-474, po, 0.5 h; for % p-erbB2 reduction: PO
# Method: Exponentially growing BT-474 cells (RPMI 1640 with 10 mM HEPES, 10% FBS, and pen/strep [Gibco]) were harvested and inoculated SC (5 million cells/animal) into female athymic mice. Trochar pieces of BT-474 tumors were then implanted into the right flank of animals. BT-474 tumor bearing mice (50-320 mm^3 in size, N=40) were randomized in 7 groups consisting 5-6 animals each. Animals were treated with vehicle (PO, BID) or the test compound (PO, QD or BID) as described in Table 4. The tumor measurements and body weight changes were obtained on days 1, 6, 11, 15 and 22. Tumor volume was calculated by the following formula: Tumor volume (mm^3)═(W×W)/2×L (L=length & W=width). Blood samples (˜50 μl) were isolated at 0.5, 1, 2, 4 and 8 hrs after dosing on day 22 for PK-analysis. Tumors were isolated at 0.5 hr post-dosing on day 22 for PD-analysis by ELISA.
# SK-OV-3 tumors = assay: SK-OV-3 xenograft tumor growth in athymic mice; type: in vivo, human; settings: for % Growth inhibition / Tumor volume Day 1 (Mean ± SE) / Tumor volume Day 18 (Mean ± SE): PO
# Description: (§1) The in vivo anti-tumor activity of the compounds for use in the methods of the present invention can be determined by the amount of inhibition of tumor growth by a test compound relative to a control. The tumor growth inhibitory effects of various compounds can be measured according to the method of Corbett T. H., et al., “Tumor Induction Relationships in Development of Transplantable Cancers of the Colon in Mice for Chemotherapy Assays, with a Note on Carcinogen Structure”, Cancer Res., 35, 2434-2439 (1975) and Corbett T. H., et al., “A Mouse Colon-tumor Model for Experimental Therapy”, Cancer Chemother. Rep. (Part 2)”, 5, 169-186 (1975), with slight modifications. Tumors can be induced in the left flank of mice by subcutaneous (sc) injection of 1-5 million log phase cultured tumor cells suspended in 0.1 ml RPMI 1640 medium. After sufficient time has elapsed for the tumors to become palpable (˜100-150 mm^3 in size/5-6 mm in diameter) the test animals (athymic female mice) are treated with test compound (formulated at a concentration of 10 to 15 mg/ml in 5 Gelucire or 0.5% methyl cellulose) by the intravenous (iv) or oral (po) route of administration once or twice daily for 7 to 29 consecutive days. In order to determine an anti-tumor effect, the tumor is measured in millimeters with a Vernier caliper across two diameters and the tumor size (mm^3) is calculated using the formula: Tumor size (mm^3)=(W×W)/2×L (L=length and W=width), according to the methods of Geran, R. I., et al. “Protocols for Screening Chemical Agents and Natural Products Against Animal Tumors and Other Biological Systems”, Third Edition, Cancer Chemother. Rep., 3, 1-104 (1972). Results are expressed as percent inhibition, according to the formula: Inhibition Growth (%)=[100-{(% Growth of Treated/% Growth of Control)×100}]. The flank site of tumor implantation provides reproducible dose/response effects for a variety of chemotherapeutic agents, and the method of measurement (tumor diameter) is a reliable method for assessing tumor growth rates.
# SK-OV-3 cells obtained from ATCC (Rockville, Md.) were grown in McCoy's medium containing 10% fetal bovine serum and pen/strep. Exponentially growing cells were harvested and inoculated SC (5 million cells/animal) into female athymic mice. The tumor measurements and body weight changes were obtained on days 1, 3, 6, 10, 13 and 18. Tumor volume was calculated by the following formula: Tumor volume (mm^3)═(W×W)/2×L (L=length & W=width). Blood samples (˜50 μl) were isolated at 0.5, 1, 2, 4 and 8 hrs after dosing on day 18 for PK-analysis. Tumors were isolated at 0.5 hr post-dosing on day 18 for PD-analysis by ELISA. The p-erbB2 reduction, tumor volume and body weight changes in control and test compound treated animals are shown below in Table 2.
# MDA-MB-453 tumors = assay: MDA-MB-453 xenograft tumor growth in athymic mice; type: in vivo, human; settings: PO; for % Growth inhibition: 29 days
# Description: as §1
# Study Design: Exponentially growing MDA-MB-453 cells (DMEM/F12 with 10% FBS, and pen/strep [Gibco]) were harvested and inoculated SC (5 million cells/animal) into female athymic mice. MDA-MB-453 tumor bearing mice (˜100 mm^3 in size, N=64) were randomized in 8 groups consisting 8 animals each. Animals were treated with vehicle (PO, QD or BID) or the test compound (PO, QD or BID) as described in Table 6. The tumor measurements and body weight changes were obtained on days 1, 3, 7, 10, 14, 17, 21, 24, and 29. Tumor volume was calculated by the following formula: Tumor volume (mm^3)═(W×W)/2×L (L=length & W=width). Blood samples (˜50 μl) were isolated at 0.5, 1, 2, 4 and 8 hrs after dosing on day 29 for PK-analysis. Tumors were isolated at 0.5 hr post-dosing on day 29 for PD-analysis by ELISA.
# Statistical Analysis: ANOVA was conducted on the percentage growth data and planned comparisons were conducted between like-doses. The data were log transformed for the analysis due to the distribution of the values. The Dunnett-Tamahane procedure was used for the multiple comparison analysis.
# [2] = BID, 30 mg/kg (Total Daily Dose = 60 mg/kg)
# Sequence of erbB2 receptor autophosphorylation (P04626 23-1255): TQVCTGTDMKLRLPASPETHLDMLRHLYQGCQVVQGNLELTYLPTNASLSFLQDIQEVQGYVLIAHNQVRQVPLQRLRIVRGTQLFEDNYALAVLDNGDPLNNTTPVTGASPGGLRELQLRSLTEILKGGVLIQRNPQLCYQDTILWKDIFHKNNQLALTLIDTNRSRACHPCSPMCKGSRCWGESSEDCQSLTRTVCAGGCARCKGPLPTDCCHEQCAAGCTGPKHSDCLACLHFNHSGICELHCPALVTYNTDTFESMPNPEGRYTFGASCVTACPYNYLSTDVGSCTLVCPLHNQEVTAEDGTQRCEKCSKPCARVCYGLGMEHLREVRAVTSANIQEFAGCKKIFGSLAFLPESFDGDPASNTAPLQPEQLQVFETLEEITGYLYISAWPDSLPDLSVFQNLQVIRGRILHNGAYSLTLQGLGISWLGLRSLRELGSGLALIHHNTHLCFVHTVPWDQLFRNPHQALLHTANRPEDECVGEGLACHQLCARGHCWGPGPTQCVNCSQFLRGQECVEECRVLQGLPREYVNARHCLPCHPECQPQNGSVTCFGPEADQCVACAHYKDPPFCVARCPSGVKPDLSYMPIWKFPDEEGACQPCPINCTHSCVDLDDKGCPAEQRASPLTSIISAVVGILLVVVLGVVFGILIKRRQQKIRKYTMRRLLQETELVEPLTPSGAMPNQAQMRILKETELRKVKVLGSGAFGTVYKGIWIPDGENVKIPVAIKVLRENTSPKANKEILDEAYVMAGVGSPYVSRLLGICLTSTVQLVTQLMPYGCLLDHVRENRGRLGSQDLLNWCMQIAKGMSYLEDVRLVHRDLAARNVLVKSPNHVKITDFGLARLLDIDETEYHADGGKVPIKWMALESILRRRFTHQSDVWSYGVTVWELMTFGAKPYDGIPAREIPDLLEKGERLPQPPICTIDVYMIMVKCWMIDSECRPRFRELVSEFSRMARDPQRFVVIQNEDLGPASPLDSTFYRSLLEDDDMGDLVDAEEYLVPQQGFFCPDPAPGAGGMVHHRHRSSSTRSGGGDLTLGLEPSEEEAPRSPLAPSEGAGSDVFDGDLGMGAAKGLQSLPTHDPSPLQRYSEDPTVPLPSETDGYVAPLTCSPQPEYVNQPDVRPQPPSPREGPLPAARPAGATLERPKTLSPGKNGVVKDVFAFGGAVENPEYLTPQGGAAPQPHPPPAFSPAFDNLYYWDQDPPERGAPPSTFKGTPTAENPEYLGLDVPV
smiles,measurement,setting,value
"COCC(=O)NC/C=C/c1ccc2ncnc(Nc3ccc(Oc4ccc(C)nc4)c(C)c3)c2c1 [Test Compound, E-2-Methoxy-N-(3-{4-(3-methyl-4-(6-methyl-pyridin-3-yloxy)-phenylamino)-quinazolin-6-yl}-allyl)-acetamide]",inhibition in vivo at 30 mg/kg,[1]; [2],26%
same,inhibition in vivo at 50 mg/kg,"[1]; BID, 50 mg/kg (Total Daily Dose = 100 mg/kg)",~75%
same,inhibition in vivo at 30 mg/kg,"[1]; QD, 30 mg/kg",57%
same,inhibition in vivo at 50 mg/kg,"[1]; QD, 50 mg/kg",~75%
same,% p-erbB2 reduction,"[1]; BID, 15 mg/kg (Total Daily Dose = 30 mg/kg)",below the limit of detection
same,% p-erbB2 reduction,[1]; [2],26%
same,% p-erbB2 reduction,"[1]; QD, 15 mg/kg, 15 mg/kg",below the limit of detection
same,"tumor growth inhibition, 100 mg/kg BID relative to 200 mg/kg QD",SK-OV-3 tumors; 18 days,2 fold
same,% Growth inhibition,"SK-OV-3 tumors; BID 25 mg/kg (Total Daily Dose = 50 mg/kg), 18 days",29%
same,% Growth inhibition,"SK-OV-3 tumors; BID 25 mg/kg (Total Daily Dose = 50 mg/kg), 18 days, listed as test compound",Approximately 29%
same,Tumor volume Day 1 (Mean ± SE),SK-OV-3 tumors; BID 25 mg/kg,93 ± 12 mm^3
same,Tumor volume Day 18 (Mean ± SE),SK-OV-3 tumors; BID 25 mg/kg,281 ± 42 mm^3
same,% Growth inhibition,"SK-OV-3 tumors; BID 50 mg/kg (Total Daily Dose = 100 mg/kg), 18 days",45%
same,Tumor volume Day 1 (Mean ± SE),SK-OV-3 tumors; BID 50 mg/kg,94 ± 13 mm^3
same,Tumor volume Day 18 (Mean ± SE),SK-OV-3 tumors; BID 50 mg/kg,218 ± 38 mm^3
same,% Growth inhibition,"SK-OV-3 tumors; BID 100 mg/kg (Total Daily Dose = 200 mg/kg), 18 days",71%
same,Tumor volume Day 1 (Mean ± SE),SK-OV-3 tumors; BID 100 mg/kg,94 ± 13 mm^3
same,Tumor volume Day 18 (Mean ± SE),SK-OV-3 tumors; BID 100 mg/kg,115 ± 24 mm^3
same,% Growth inhibition,"SK-OV-3 tumors; QD 50 mg/kg, 18 days",2%
same,% Growth inhibition,"SK-OV-3 tumors; QD 50 mg/kg, 18 days, listed as test compound",non-efficacious
same,Tumor volume Day 1 (Mean ± SE),SK-OV-3 tumors; QD 50 mg/kg,98 ± 14 mm^3
same,Tumor volume Day 18 (Mean ± SE),SK-OV-3 tumors; QD 50 mg/kg,390 ± 38 mm^3
same,% Growth inhibition,"SK-OV-3 tumors; QD 100 mg/kg, 18 days",23%
same,Tumor volume Day 1 (Mean ± SE),SK-OV-3 tumors; QD 100 mg/kg,97 ± 14 mm^3
same,Tumor volume Day 18 (Mean ± SE),SK-OV-3 tumors; QD 100 mg/kg,306 ± 36 mm^3
same,% Growth inhibition,"SK-OV-3 tumors; QD 200 mg/kg, 18 days",36%
same,Tumor volume Day 1 (Mean ± SE),SK-OV-3 tumors; QD 200 mg/kg,98 ± 14 mm^3
same,Tumor volume Day 18 (Mean ± SE),SK-OV-3 tumors; QD 200 mg/kg,254 ± 39 mm^3
same,% Growth inhibition,MDA-MB-453 tumors; BID 25 mg/kg (Total Daily Dose = 50 mg/kg),19%
same,Tumor volume Day 1 (Mean ± SE),MDA-MB-453 tumors; BID 25 mg/kg,107 ± 4 mm^3
same,Tumor volume Day 29 (Mean ± SE),MDA-MB-453 tumors; BID 25 mg/kg,252 ± 24 mm^3
same,% Growth inhibition,MDA-MB-453 tumors; BID 50 mg/kg (Total Daily Dose = 100 mg/kg),66%
same,Tumor volume Day 1 (Mean ± SE),MDA-MB-453 tumors; BID 50 mg/kg,107 ± 4 mm^3
same,Tumor volume Day 29 (Mean ± SE),MDA-MB-453 tumors; BID 50 mg/kg,164 ± 13 mm^3
same,% Growth inhibition,MDA-MB-453 tumors; BID 100 mg/kg (Total Daily Dose = 200 mg/kg),83%
same,Tumor volume Day 1 (Mean ± SE),MDA-MB-453 tumors; BID 100 mg/kg,107 ± 4 mm^3
same,Tumor volume Day 29 (Mean ± SE),MDA-MB-453 tumors; BID 100 mg/kg,137 ± 6 mm^3
same,% Growth inhibition,MDA-MB-453 tumors; QD 50 mg/kg,38%
same,Tumor volume Day 1 (Mean ± SE),MDA-MB-453 tumors; QD 50 mg/kg,107 ± 4 mm^3
same,Tumor volume Day 29 (Mean ± SE),MDA-MB-453 tumors; QD 50 mg/kg,213 ± 19 mm^3
same,% Growth inhibition,MDA-MB-453 tumors; QD 100 mg/kg,63%
same,Tumor volume Day 1 (Mean ± SE),MDA-MB-453 tumors; QD 100 mg/kg,107 ± 4 mm^3
same,Tumor volume Day 29 (Mean ± SE),MDA-MB-453 tumors; QD 100 mg/kg,175 ± 14 mm^3
same,% Growth inhibition,MDA-MB-453 tumors; QD 200 mg/kg,100%
same,Tumor volume Day 1 (Mean ± SE),MDA-MB-453 tumors; QD 200 mg/kg,107 ± 4 mm^3
same,Tumor volume Day 29 (Mean ± SE),MDA-MB-453 tumors; QD 200 mg/kg,108 ± 9 mm^3
